Laboratory results as given in PubChem BioAssay AID1996.
≈ marks a conversion by molar mass, not a printed value.

Details: buffer; pH 7.4; 200.0 µM

Structure (SMILES) | solubility kinetic [µg/mL]
O=C(COC(=O)c1c(F)cccc1Cl)NC1CCCC1 | > 45
S=c1[nH]nc(C2(c3ccccc3)CCCC2)o1 | > 36.9
O=C1CSCC(=O)N1c1ncc(C(F)(F)F)cc1Cl | 42 (≈ 135 µM)
CC(C)(C)C(=O)NC1CC2CCCC(C1)N2C(=O)Nc1ccccc1 (centres undefined) | 12.8 (≈ 37.3 µM)
Cc1ccc(NC(=O)COc2ccc3c(c2)OCO3)c(C)c1 | 6.1 (≈ 20.4 µM)
CCn1c(=O)c2c(nc(SCC(=O)NC3CCCC3)n2C)n(C)c1=O | > 54.8
Cc1cccc(NC(=O)Nc2ccccn2)c1C | 1.2 (≈ 4.97 µM)
Cc1ccc(NC(=O)NCc2cccnc2)cc1 | > 36.2
Cc1ccc(CNS(=O)(=O)c2ccc(F)c(F)c2)n1C | > 45
Cc1cccc(CN2CCN(C(=O)c3cccc4ccccc34)CC2)c1 | 38.6 (≈ 112 µM)
COc1cccc(-n2c(SCc3ccccn3)nc3c(c2=O)SCC3)c1 | 54.1 (≈ 141 µM)
COc1ccc2c(ccn2S(=O)(=O)c2ccccc2)c1 | 1.6 (≈ 5.57 µM)
CCC(=O)c1ccc2c(c1)N(CCCN(C)C)c1ccccc1S2.Cl | > 56.5
O=C(c1ccc(Br)cc1)N1CCN(c2ncccn2)CC1 | 44.6 (≈ 128 µM)
CCCCC(=O)NCc1ccccc1Cl | > 33.9
CNC(=O)c1sc(-c2cccs2)nc1C | > 35.7
Cc1ccc(OCC(=O)Nc2ccc3oc(=O)ccc3c2)cc1 | 1.7 (≈ 5.5 µM)
Cc1ccc([N+](=O)[O-])cc1NC(=O)C(C)N1CCCCC1 (centres undefined) | 40.4 (≈ 139 µM)
CCC(=O)N1CCN=C1SCc1cccc(F)c1 | > 39.9
COc1ccccc1Oc1ncnc2sccc12 | > 38.7

Structure (SMILES) | solubility kinetic [µg/mL]
O=[N+]([O-])c1ccc(-c2ccc(/C=N/O)o2)cc1 | 8 (≈ 34.5 µM)
Cc1cccc(N2CCN(C(=O)NC3CCCCC3)CC2)c1C | 0.7 (≈ 2.22 µM)
Cc1nccc(-c2cccc(NC(=O)c3ccccc3Cl)c2)n1 | 35 (≈ 108 µM)
CC(C)(C)NC(=O)C(=O)NNC(=O)c1ccco1 | > 38
C(=C\c1nc(-c2ccncc2)no1)/c1ccccc1 | 3.4 (≈ 13.6 µM)
CN1C(=O)NC(c2cccc(F)c2)C2=C1CC(C)(C)CC2=O (centres undefined) | > 45.4
Cl.O=C(CNCc1cccs1)NC12CC3CC(CC(C3)C1)C2 | 48.1
Cc1cccc(C)c1NC(=O)N1CC(C)OC(C)C1 (centres undefined) | > 39.4
COCCn1c(SCC(=O)NCCCN2CCCC2=O)nc2ccccc2c1=O | > 62.8
CC(=O)c1csc(COc2ccccc2)n1 | 27.3 (≈ 117 µM)
CN1CCC(N(C)C(=O)NC2CCCCC2)CC1 | > 38
Cc1cc(C)cc(NC(=O)N2C3CCCC2CC(NC(=O)C2CC2)C3)c1 (centres undefined) | 1.6 (≈ 4.5 µM)
COc1ccc(C(=O)Nc2cccc3nc(C)ccc23)cc1OC | 16.6 (≈ 51.5 µM)
CCc1nc(SCC(=O)O)c(C#N)c2c1CCCC2 | > 41.5
CCOC(=O)c1sc(=S)n(-c2ccc(C)cc2)c1N | 1.4 (≈ 4.76 µM)
CCCN1CCC(NC(=O)C2CC=CCC2C(=O)O)CC1 (centres undefined) | > 44.2
Cc1cccc(C)c1N1CCN(c2c(C)cccc2C)CC1 | < 0.3
CC(C)NC(=O)COCc1cc(-c2ccc3c(c2)OCO3)on1 | > 47.7
CC12CCC(C(=O)Nc3ccc(Br)cn3)(OC1=O)C2(C)C (centres undefined) | > 53
Cl.Nc1cccc2c3c(oc12)CCCC3 | 7.4

Structure (SMILES) | solubility kinetic [µg/mL]
O=C(COC(=O)c1ccc(F)c(S(=O)(=O)N2CCOCC2)c1)NCc1ccc(F)cc1 | > 68.2
CCCOc1ccc(Cc2c(O)nc(N)[nH]c2=O)cc1C | 15.6 (≈ 53.9 µM)
NCCCNc1nc(N)c([N+](=O)[O-])c(NC2CCCCC2)n1 | > 46.4
O=C(CCSCc1ccccc1Cl)NCc1ccco1 | > 46.5
COc1cc(NC(=O)/C=C/c2ccccc2)c(C(=O)O)cc1OC | > 49.1
O=C(Oc1c(-c2ccccc2)c(=O)n2c3c(cccc13)CC2)c1ccc(F)cc1 | < 0.8
CCOc1cccc(-c2nnc(SCC(=O)NC3CC3)n2C)c1 | > 49.9
Cc1ccc(S(=O)(=O)N2CC(O)CC2C(=O)OCC(=O)Nc2ccc([N+](=O)[O-])cc2C(F)(F)F)cc1C (centres undefined) | 76.5 (≈ 140 µM)
C/C(N)=C(/C#N)C(=O)COC(=O)Cc1coc2cc(C)ccc12 | 10.2 (≈ 32.7 µM)
Cc1cccc(C(=O)NCC(=O)OCc2nc(N)nc(Nc3ccccc3C)n2)c1 | 53.8 (≈ 132 µM)
O=C(COC(=O)/C=C/c1ccco1)Nc1cc(S(=O)(=O)N2CCOCC2)ccc1Cl | 2.7 (≈ 5.94 µM)
O=C(NCc1cccs1)C1CC(=O)N(c2ccc(Cl)cc2)C1 (centres undefined) | 11.9 (≈ 35.5 µM)
COc1cccc(NC(=O)CN(C)C(=O)c2cccc(S(=O)(=O)N3CC4(C)CC3CC(C)(C)C4)c2)c1 (centres undefined) | 2 (≈ 3.89 µM)
Clc1ccccc1C(c1ccccc1)(c1ccccc1)n1ccnc1 | 3.7 (≈ 10.7 µM)
CN(Cc1ccccc1)C(=O)COC(=O)COc1ccc(Cl)cc1 | 2.9 (≈ 8.34 µM)
Cc1ccc(OCC(O)Cn2nc(C)cc2C)cc1 (centres undefined) | > 39.1
CCN(CC)C(=O)CN1C(=O)c2cccc3cccc1c23 | > 42.4
Cc1ccc(C(=O)CCc2ccc(N)cc2)cc1 | 34.9 (≈ 146 µM)
COc1ccccc1Nc1c2ccccc2nc2ccccc12 | 35.5 (≈ 118 µM)
